Values after ≈ are worked out from the molar mass of the structure shown.
Experiments:
Format in all cases: cell-based
[1] = test system: Rhizomucor pusillus 46342; experiment: In vitro antifungal assay (Example IX), microdilution broth, MEC; settings: minimum effective concentration (shortening of hyphae), 35° C., 40-48 h, RPMI1640
Description: (§1) Measurement of antifungal activity: […] Candida albicans 90028, Aspergillus fumigatus MYA3626, Rhizomucor pusillus 46342 and Cryptococcus neoformans […] strains were obtained from American Type Culture Collection (ATCC). […] (A. fumigatus) and 35° C. (R. pusillus). Water containing 1% Tween was directly added to the agar plate and gently agitated to wet and remove the Aspergillus conidia. For R. pusillus, water was added to the surface and gently massaged to wet and remove the spores. For both species, the conidia or spores and mycelial fragments were collected, followed by removal of mycelium, conidiophores and large clumps of conidia/spores. The resulting spore suspension was counted and diluted into RPMI1640 medium to adjust to a final suspension of 1-2×10^4 spores/mL. The suspension was used in the MEC measurement as described below. […] The compounds were weighed and DMSO was added to prepare a 10 mg/mL stock. The solutions were mixed by vortexing and sonication at 37° C. for 5-10 mins. The resulting solutions were sterile filtered using a PTFE filter, and aliquoted (12 μL or as needed) and stored at -20° C. Intermediate compound dilutions were prepared in sterile polypropylene tubes in 100% DMSO. […] This was validated by thorough mixing and reading at 600 nm on a microplate reader. The minimum concentration that led to shortening of hyphae as compared to hyphal growth in DMSO control wells was determined as the minimum effective concentration (MEC) for A. fumigatus and R. pusillus (as read for echinocandins). The use of the MIC and MEC endpoints against yeasts and molds, respectively has been described by Pfaller M A, Duncanson F, Messer S A, Moet G J, Jones […]. Antimicrob Agents Chemother. 2011. 55(11):5155-8. In vitro activity of a novel broad-spectrum antifungal, […], tested against Aspergillus spp. determined by CLSI and EUCAST broth microdilution methods. Results are shown in Table 2, and the letters indicate the following ranges in μg/mL: […]

[2] = test system: Aspergillus fumigatus MYA3626; experiment: as above; settings: minimum effective concentration (shortening of hyphae), 35° C., 40-48 h, RPMI1640
Description: as §1

Candida albicans 90028 = experiment: In vitro antifungal assay (Example IX), microdilution broth, MIC; settings: minimum inhibitory concentration (≥50% inhibition), 35° C., 40-48 h, RPMI1640
Description: Measurement of antifungal activity: Antifungal activity of the compounds was evaluated in a microdilution broth assay as per Clinical and Laboratory Standard Institute methodology for yeast (for Candida and Cryptococcus) (1) and molds (for Aspergillus and Rhizomucor) (2). Candida albicans 90028, Aspergillus fumigatus MYA3626, Rhizomucor pusillus 46342 and Cryptococcus neoformans H99 strains were obtained from American Type Culture Collection (ATCC).
Preparation of Fungal Suspension. C. albicans 90028 and C. neoformans H99 strains were streaked from frozen stocks at −80° C. onto Sabouraud Dextrose Agar (SDA) plates. These were allowed to grow for 24 h (C. albicans) and 48 h (C. neoformans) at 35° C. before using them in the assay. 5-6 individual colonies were picked and diluted into sterile water to obtain a fungal suspension. The cell density of the suspension was determined and the culture diluted with RPMI1640 medium to obtain a fungal suspension of 2.5×10^3 cells/mL. The suspension was used in the MIC measurement as described below.
Preparation of Compound Stocks and Intermediate Dilutions: The compounds were weighed and DMSO was added to prepare a 10 mg/mL stock. The solutions were mixed by vortexing and sonication at 37° C. for 5-10 mins. The resulting solutions were sterile filtered using a PTFE filter, and aliquoted (12 μL or as needed) and stored at −20° C. Intermediate compound dilutions were prepared in sterile polypropylene tubes in 100% DMSO. The compound stock solution was first diluted in DMSO to obtain a concentration of […] to 0.19 μg/mL.
MIC/MEC Measurement: 99 μL 1 of the fungal suspension in RPMI1640 prepared as above was added to each well of a 96-well round bottom assay plate. 1 μL of the intermediate compound dilutions (200-0.19 μg/mL) were added to wells of the plate. This led to a 100-fold dilution of the intermediate dilutions resulting in a final compound concentration of 2-0.0019 μg/mL in the plate. 1 μL of DMSO was added to “No drug” control wells. The solutions were mixed by shaking on a plate shaker for 10 mins and plates incubated at 35° C. for 40-48 h (C. albicans, A. fumigatus, R. pusillus) and 72 h (Cryptococcus). […] This was validated by thorough mixing and reading at 600 nm on a microplate reader. The minimum concentration that led to shortening of hyphae as compared to hyphal growth in DMSO control wells was determined as the minimum effective concentration (MEC) for A. fumigatus and R. pusillus (as read for echinocandins). The use of the MIC and MEC endpoints against yeasts and molds, respectively has been described by Pfaller M A, Duncanson F, Messer S A, Moet G J, Jones R N, Castanheira M. Antimicrob Agents Chemother. 2011. 55(11):5155-8. In vitro activity of a novel broad-spectrum antifungal, E1210, tested against Aspergillus spp. determined by CLSI and EUCAST broth microdilution methods. Results are shown in Table 2, and the letters indicate the following ranges in μg/mL: […]

SMILES | minimal effective concentration [1] [µg/mL] | minimal effective concentration [2] [µg/mL] | MIC (Candida albicans 90028) [µg/mL]
Nc1ncccc1-c1cc(Cc2ccc(CCl)cc2)no1 [B, 3-(3-(4-(chloromethyl)benzyl)isoxazol-5-yl)pyridin-2-amine] | > 1 | 0.1 to 1 | > 1
Nc1ncccc1-c1cc(Cc2ccc(O)cc2)no1 [C, 4-((5-(2-aminopyridin-3-yl)isoxazol-3-yl)methyl)phenol] | > 1 | 0.1 to 1 | > 1
Nc1ncccc1-c1cc(Cc2ccc(F)nc2)no1 [E, 3-(3-((6-fluoropyridin-3-yl)methyl)isoxazol-5-yl)pyridin-2-amine] | > 1 | > 1 | > 1
Nc1ncccc1-c1cc(Cc2ccc(CNc3nc4ccccc4[nH]3)cc2)no1 [Example 145, N-(4-((5-(2-aminopyridin-3-yl)isoxazol-3-yl)methyl)benzyl)-1H-benzo[d]imidazol-2-amine] | > 1 | > 1 | > 1
Nc1ncccc1-c1cc(Cc2cccc(OCCc3cccc(F)c3)n2)no1 [Example 147, 3-(3-((6-(3-fluorophenethoxy)pyridin-2-yl)methyl)isoxazol-5-yl)pyridin-2-amine] | > 1 | > 1 | > 1
Nc1ncccc1-c1cc(Cc2ccc(Cc3cccc(C(F)(F)F)n3)cc2)no1 [Example 151, 3-(3-(4-((6-(trifluoromethyl)pyridin-2-yl)methyl)benzyl)isoxazol-5-yl)pyridin-2-amine] | 0.1 to 1 | 0.1 to 1 | 0.1 to 1 (≈ 0.244 to 2.44 µM)
Cn1ccc(Cc2ccc(Cc3cc(-c4cccnc4N)on3)cc2)n1 [Example 152, 3-(3-(4-((1-methyl-1H-pyrazol-3-yl)methyl)benzyl)isoxazol-5-yl)pyridin-2-amine] | > 1 | 0.01 to 0.1 | 0.01 to 0.1 (≈ 0.029 to 0.29 µM)
Nc1ncccc1-c1cc(Cc2ccc(NCc3ccc(F)cc3)nc2)no1 [Example 153, 5-((5-(2-aminopyridin-3-yl)isoxazol-3-yl)methyl)-N-(4-fluorobenzyl)pyridin-2-amine] | > 1 | 0.01 to 0.1 | 0.1 to 1 (≈ 0.266 to 2.66 µM)
Cc1ncsc1CCOc1ccc(Cc2cc(-c3cccnc3N)on2)cn1 [Example 155, 3-(3-((6-(2-(4-methylthiazol-5-yl)ethoxy)pyridin-3-yl)methyl)isoxazol-5-yl)pyridin-2-amine] | > 1 | > 1 | > 1
Nc1ncccc1-c1cc(Cc2ccc(OCCc3cc(F)c(F)cc3F)nc2)no1 [Example 158, 3-(3-((6-(2,4,5-trifluorophenethoxy)pyridin-3-yl)methyl)isoxazol-5-yl)pyridin-2-amine] | > 1 | 0.1 to 1 | 0.1 to 1 (≈ 0.235 to 2.35 µM)
Nc1ncccc1-c1cc(Cc2ccc(OCCc3c(F)cccc3Cl)nc2)no1 [Example 159, 3-(3-((6-(2-chloro-6-fluorophenethoxy)pyridin-3-yl)methyl)isoxazol-5-yl)pyridin-2-amine] | > 1 | 0.1 to 1 | 0.1 to 1 (≈ 0.235 to 2.35 µM)
Nc1ncccc1-c1cc(Cc2ccc(OCc3ncccc3F)nc2)no1 [Example 162, 3-(3-((6-((3-fluoropyridin-2-yl)methoxy)pyridin-3-yl)methyl)isoxazol-5-yl)pyridin-2-amine] | > 1 | 0.1 to 1 | 0.01 to 0.1 (≈ 0.0265 to 0.265 µM)
CC(C)(COc1ccc(Cc2cc(-c3cccnc3N)on2)cn1)c1ccccc1 [Example 163, 3-(3-((6-(2-methyl-2-phenylpropoxy)pyridin-3-yl)methyl)isoxazol-5-yl)pyridin-2-amine] | 0.1 to 1 | 0.1 to 1 | > 1
Nc1ncccc1-c1cc(Cc2ccc(OCc3cccc4ccccc34)nc2)no1 [Example 164, 3-(3-((6-(naphthalen-1-ylmethoxy)pyridin-3-yl)methyl)isoxazol-5-yl)pyridin-2-amine] | > 1 | 0.1 to 1 | > 1
CC(C)=CCOc1ccc(Cc2cc(-c3cccnc3N)on2)cn1 [Example 166, 3-(3-((6-((3-methylbut-2-en-1-yl)oxy)pyridin-3-yl)methyl)isoxazol-5-yl)pyridin-2-amine] | 0.1 to 1 | 0.01 to 0.1 | 0.1 to 1 (≈ 0.297 to 2.97 µM)
Nc1ncccc1-c1cc(Cc2ccc(CNc3cc(F)cc(F)c3)cc2)no1 [Example 167, 3-(3-(4-(((3,5-difluorophenyl)amino)methyl)benzyl)isoxazol-5-yl)pyridin-2-amine] | 0.1 to 1 | 0.01 to 0.1 | 0.1 to 1 (≈ 0.255 to 2.55 µM)
Nc1ncccc1-c1cc(Cc2ccc(Cn3ncc4ccccc43)cc2)no1 [Example 170, 3-(3-(4-((1H-indazol-1-yl)methyl)benzyl)isoxazol-5-yl)pyridin-2-amine] | 0.1 to 1 | 0.1 to 1 | 0.1 to 1 (≈ 0.262 to 2.62 µM)
Nc1ncccc1-c1cc(Cc2ccc(Cn3cc4ccccc4n3)cc2)no1 [Example 171, 3-(3-(4-((2H-indazol-2-yl)methyl)benzyl)isoxazol-5-yl)pyridin-2-amine] | 0.1 to 1 | 0.1 to 1 | 0.01 to 0.1 (≈ 0.0262 to 0.262 µM)
Nc1ncccc1-c1cnn(Cc2ccc(Oc3ccccc3)nc2)c1 [compound 63, 3-(1-((6-phenoxypyridin-3-yl)methyl)-1H-pyrazol-4-yl)pyridin-2-amine] | > 1 |  | 0.1 to 1 (≈ 0.291 to 2.91 µM)
c1ccc(Oc2ccc(Cn3cc(-c4cccnc4)cn3)cn2)cc1 [compound 64, 2-phenoxy-5-((4-(pyridin-3-yl)-1H-pyrazol-1-yl)methyl)pyridine] | > 1 |  | 0.1 to 1 (≈ 0.305 to 3.05 µM)
Nc1ncccc1-c1cc(Cc2ccc(OCCc3cccc(F)c3)nc2)no1 [compound 91, 3-(3-((6-(3-fluorophenethoxy)pyridin-3-yl)methyl)isoxazol-5-yl)pyridin-2-amine] | > 1 |  | 
Nc1ncccc1-c1cc(Cc2ccc(OCc3cc(Cl)ccn3)nc2)no1 [compound 92, 3-(3-((6-((4-chloropyridin-2-yl)methoxy)pyridin-3-yl)methyl)isoxazol-5-yl)pyridin-2-amine] | 0.1 to 1 |  | 
Nc1ncccc1-c1cc(Cc2ccc(CNc3nc(=O)[nH]cc3F)cc2)no1 [compound 232, 4-((4-((5-(2-aminopyridin-3-yl)isoxazol-3-yl)methyl)benzyl)amino)-5-fluoropyrimidin-2(1H)-one] |  | > 1 | > 1

— patent US11512079B2, “Heterocycle substituted pyridine derivative antifungal agents” (Amplyx Pharmaceuticals, Inc., priority 2017, dated 2022)
